Reference: paper PMC3745430, “Novel Multiplexed Assay for Identifying SH2 Domain Antagonists of STAT Family Proteins” (PLoS ONE, 2013)

Key:
STAT5b(136–703) [1] = target: T1, STAT5b(136–703) (Homo sapiens, UniProt P51692); assay: Single STAT5b-SH2 binding assay (AlphaScreen); settings: non-multiplexed single assay
T1 construct: 136 to 703 of human STAT5b; 6×His-tag (N); made in house; host or cells: E. coli BL-21 Star (DE3) pLysS co-transformed with pBirAcm
T1 sequence (P51692 136-703): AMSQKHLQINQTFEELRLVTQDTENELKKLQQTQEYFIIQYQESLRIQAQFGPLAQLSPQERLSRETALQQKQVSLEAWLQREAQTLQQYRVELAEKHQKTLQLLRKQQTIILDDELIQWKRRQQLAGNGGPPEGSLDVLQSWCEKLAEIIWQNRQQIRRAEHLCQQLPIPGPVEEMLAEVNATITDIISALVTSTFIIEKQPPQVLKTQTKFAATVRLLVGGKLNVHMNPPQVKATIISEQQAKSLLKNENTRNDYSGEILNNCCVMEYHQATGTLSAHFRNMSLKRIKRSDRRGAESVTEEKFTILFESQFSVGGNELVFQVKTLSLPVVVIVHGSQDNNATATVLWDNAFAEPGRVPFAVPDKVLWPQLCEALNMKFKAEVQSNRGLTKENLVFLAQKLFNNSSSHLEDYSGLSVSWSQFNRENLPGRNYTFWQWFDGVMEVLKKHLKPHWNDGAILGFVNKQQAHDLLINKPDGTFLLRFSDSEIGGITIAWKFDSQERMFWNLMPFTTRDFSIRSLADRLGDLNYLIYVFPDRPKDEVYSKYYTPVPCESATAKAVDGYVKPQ
Description: (§1) Both AlphaLISA and AlphaScreen are bead-based nonradioactive binding assay systems for detecting biomolecular interactions in a microplate format. The binding of the biological partners brings the donor and acceptor beads into close proximity, and AlphaLISA produces a specific signal around 615 nm and AlphaScreen emits a broad signal between 520 and 620 nm. The assays were performed in a final reaction volume of 25 µL of the assay buffer, which contained 10 mM HEPES-NaOH (pH 7.4), 50 mM NaCl, 1 mM EDTA (pH 8.0), 0.1% (w/v) NP-40, and 10 ng/µL (w/v) BSA in a 96-well microplate at 25°C. The labeled phosphotyrosyl (pTyr, pY) peptide probes were DIG-GpYLPQTV and FITC-GpYLVLDKW for STAT3 and STAT5b, respectively. In the single assay for STAT3 binding, 100 nM STAT3(136–705) protein was incubated with a test compound dissolved in DMSO for 30 min, and 1.0 nM DIG-GpYLPQTV was added and the mixture was incubated for 90 min. Streptavidin-coated donor beads (0.25 µg/well) and anti-DIG AlphaLISA acceptor beads (0.25 µg/well) were added and incubated for 90 min before the signals were measured with EnVison Xcite (PerkinElmer Life Sciences). In the single assay for STAT5b binding, 20 nM STAT5b(136–703) was incubated with a test compound for 30 min, and 1.0 nM FITC-GpYLVLDKW was added and incubated for 90 min. Streptavidin-coated donor beads (0.25 µg/well) and anti-FITC AlphaScreen acceptor beads (0.25 µg/well) were added and incubated for 90 min before the signals were measured with EnVison Xcite. In the multiplexed assay, 100 nM STAT3(136–705) and 20 nM STAT5b(136–703) were incubated with a test compound for 30 min, and 1.0 nM DIG-GpYLPQTV and 1.0 nM FITC-GpYLVLDKW were added and incubated for 90 min. Streptavidin-coated donor beads (0.50 µg/well), anti-DIG AlphaLISA (0.25 µg/well), and anti-FITC AlphaScreen acceptor beads (0.25 µg/well) were added and incubated for 90 min before the signals were measured with EnVison Xcite. AlphaLISA and AlphaScreen signals for measuring STAT3- and STAT5b-SH2 binding, respectively, can be separately measured by using a dysprosium 572 nm and a europium 615 nm narrow bandwidth filter. In inhibitory assays, these signals for the bound state and the free state were represented as 0% and 100% inhibition, respectively. The bound state was measured by incubating the labeled peptide and the protein without test compounds. The free state was measured by incubating the same mixture with an additional 10 µM non-labeled peptide contained phosphorylated tyrosine, which competitively binds to its corresponding protein. The IC50 value was calculated by Graph pad prism 4.0. The mean and the standard error (SEM) of IC50 values were determined from three independent experiments. The Z’ value was calculated using the equation Z’ = 1–(3×SD_bound +3×SD_free)/(Signal_bound – Signal_free). STAT1 and Grb2 binding assays were performed as described in previous report. In the assays for selectivity of Compound 1, 100 pM biotinylated DIG or 100 pM biotinylated FITC was incubated with 10 µM or 30 µM Compound 1 for 30 min. Streptavidin-coated donor beads (0.25 µg/well) and anti-DIG AlphaLISA acceptor beads (0.25 µg/well) or anti-FITC AlphaScreen acceptor beads (0.25 µg/well) were added and incubated for 90 min before the signals were measured with EnVison Xcite.

STAT5b(136–703) [2] = target: T1, STAT5b(136–703); assay: Multiplexed Alpha assay, STAT5b-SH2 binding (AlphaScreen); settings: multiplexed binding assay; mean and SEM, three independent experiments; read-out: IC50 STAT5b-SH2 binding (STAT5b)
Description: as §1

[3] = tested on: STAT3 reporter HeLa stable cell line; assay: STAT3 luciferase reporter gene assay; format: cell-based; settings: pretreatment before oncostatin M stimulation (Figure S10)
Description: STAT3 reporter HeLa stable cell lines were incubated in a 96-well microplate for 24 hours. Cells were pretreated with test compounds for 1 hour, and 10 ng/ml (w/v) of oncostatin M were applied and incubated for 4 hours. Cells were washed with medium not supplemented with phenol red, and Steady-Glo® reagent (Promega) was applied. After 5 min incubation, the signals were detected by ARVO Light 1420 (PerkinElmer Life Sciences). The relative signal intensity was calculated in each well as the ratio for the mean signal of vehicle.

IC50 (STAT5b(136–703) [1]): 10 µM
IC50 (STAT5b(136–703) [2]): 11 ± 0.27 µM
Compound: O=C1C=CC(=NC2=C(Cl)C(=O)c3ccccc3C2=O)C=C1 [Compound 1]
Effect on STAT3 transcriptional activity [3]: reduced the STAT3 transcriptional activity in a dose-dependent manner
